Measurements as given in US11180470B2, “Herbicidal pyrimidine compounds” (BASF SE, priority 2016, dated 2021).

What was measured:
AMARE = assay: greenhouse experiment, post-emergence treatment; type: in vivo, Amaranthus retroflexus; conditions: post-emergence method, scale from 0 to 100
Excerpt: (§1) The culture containers used were plastic flowerpots containing loamy sand with approximately 3.0% of humus as the substrate. The seeds of the test plants were sown separately for each species.
(§2) For the post-emergence treatment, the test plants were first grown to a height of 3 to 15 cm, depending on the plant habit, and only then treated with the active ingredients which had been suspended or emulsified in water. For this purpose, the test plants were either sown directly and grown in the same containers, or they were first grown separately as seedlings and transplanted into the test containers a few days prior to treatment.
(§3) Depending on the species, the plants were kept at 10-25° C. or 20-35° C., respectively.
(§4) The test period extended over 2 to 4 weeks. During this time, the plants were tended, and their response to the individual treatments was evaluated.
(§5) Evaluation was carried out using a scale from 0 to 100. 100 means no emergence of the plants, or complete destruction of at least the aerial moieties, and 0 means no damage, or normal course of growth. A good herbicidal activity is given at values of at least 70 and a very good herbicidal activity is given at values of at least 85.
(§6) The plants used in the greenhouse experiments were of the following species: […]

ECHCG [1] = assay: greenhouse experiment, post-emergence treatment; type: in vivo, Echinocloa crus-galli; conditions: post-emergence method, scale from 0 to 100
Description: The seeds of the test plants were sown separately for each species. […] For this purpose, the test plants were either sown directly and grown in the same containers, or they were first grown separately as seedlings and transplanted into the test containers a few days prior to treatment. Depending on the species, the plants were kept at 10-25° C. or 20-35° C., respectively. The test period extended over 2 to 4 weeks. During this time, the plants were tended, and their response to the individual treatments was evaluated. Evaluation was carried out using a scale from 0 to 100. 100 means no emergence of the plants, or complete destruction of at least the aerial moieties, and 0 means no damage, or normal course of growth. A good herbicidal activity is given at values of at least 70 and a very good herbicidal activity is given at values of at least 85. The plants used in the greenhouse experiments were of the following species: [table]

ALOMY = assay: greenhouse experiment, post-emergence treatment; type: in vivo, Alopecurus myosuroides; conditions: post-emergence method, scale from 0 to 100
Excerpt: as §1, §2, §3, §4, §5, §6

AVEFA = assay: greenhouse experiment, post-emergence treatment; type: in vivo, Avena fatua; conditions: post-emergence method, scale from 0 to 100
Excerpt: as §1, §2, §3, §4, §5, §6

APESV = assay: greenhouse experiment, pre-emergence treatment; type: in vivo, Apera spica-venti; conditions: pre-emergence method, scale from 0 to 100
Excerpt: (§7) The seeds of the test plants were sown separately for each species. For the pre-emergence treatment, the active ingredients, which had been suspended or emulsified in water, were applied directly after sowing by means of finely distributing nozzles. The containers were irrigated gently to promote germination and growth and subsequently covered with transparent plastic hoods until the plants had rooted. This cover caused uniform germination of the test plants, unless this had been impaired by the active ingredients. Depending on the species, the plants were kept at 10-25° C. or 20-35° C., respectively. The test period extended over 2 to 4 weeks. During this time, the plants were tended, and their response to the individual treatments was evaluated. Evaluation was carried out using a scale from 0 to 100. 100 means no emergence of the plants, or complete destruction of at least the aerial moieties, and 0 means no damage, or normal course of growth. A good herbicidal activity is given at values of at least 70 and a very good herbicidal activity is given at values of at least 85. The plants used in the greenhouse experiments were of the following species: [table]

ECHCG [2] = assay: greenhouse experiment, pre-emergence treatment; type: in vivo, Echinocloa crus-galli; conditions: pre-emergence method, scale from 0 to 100
Excerpt: as §7

SMILES | herbicidal activity against AMARE (AMARE; application rate 2000 g/ha) | herbicidal activity against ALOMY (ALOMY; application rate 2000 g/ha) | herbicidal activity against AVEFA (AVEFA; application rate 2000 g/ha) | herbicidal activity against APESV (APESV; application rate 2000 g/ha) | herbicidal activity against ECHCG (ECHCG [2]; application rate 2000 g/ha) | herbicidal activity against ECHCG (ECHCG [1]; application rate 2000 g/ha) | other results
O=Cc1ccoc1-c1cnc(C2CC2)nc1C(=O)O [Example 40] | very good (a very good herbicidal activity is given at values of at least 85) |  |  |  |  |  | 
COC(=O)c1nc(OC)ncc1-c1ncccc1F [Example 46] | good (A good herbicidal activity is given at values of at least 70) |  |  |  |  |  | 
CCc1ncc(-c2ncc(F)cc2Br)c(C(=O)O)n1 [Example 54] |  |  |  |  |  |  | herbicidal activity against AMARE (AMARE; application rate 1000 g/ha): very good (a very good herbicidal activity is given at values of at least 85); herbicidal activity against ECHCG (ECHCG [1]; application rate 1000 g/ha): very good (a very good herbicidal activity is given at values of at least 85)
COC(=O)c1nc(C2CC2)ncc1-c1occc1C(F)F [Example 17] | very good (a very good herbicidal activity is given at values of at least 85) |  |  |  |  |  | 
O=C(O)c1nc(C2CC2)ncc1-c1cc(C(F)(F)F)ncc1Cl [Example 64] |  | very good (a very good herbicidal activity is given at values of at least 85) | very good (a very good herbicidal activity is given at values of at least 85) | very good (a very good herbicidal activity is given at values of at least 85) | very good (a very good herbicidal activity is given at values of at least 85) | good (A good herbicidal activity is given at values of at least 70) | 
COC(=O)c1nc(C2CC2)ncc1-c1ncc(F)cc1Br [Example 21] |  | very good (a very good herbicidal activity is given at values of at least 85) | very good (a very good herbicidal activity is given at values of at least 85) | very good (a very good herbicidal activity is given at values of at least 85) | very good (a very good herbicidal activity is given at values of at least 85) | very good (a very good herbicidal activity is given at values of at least 85) | 
O=C(O)c1nc(C2CC2)ncc1-c1ncccc1Br [Example 29] |  | very good (a very good herbicidal activity is given at values of at least 85) | very good (a very good herbicidal activity is given at values of at least 85) | good (A good herbicidal activity is given at values of at least 70) | good (A good herbicidal activity is given at values of at least 70) | very good (a very good herbicidal activity is given at values of at least 85) | 
COC(=O)c1nc(C2CC2)ncc1-c1ncccc1Cl [Example 16] |  |  |  |  |  |  | herbicidal activity against ALOMY (ALOMY; application rate 1000 g/ha): very good (a very good herbicidal activity is given at values of at least 85); herbicidal activity against AVEFA (AVEFA; application rate 1000 g/ha): good (A good herbicidal activity is given at values of at least 70); herbicidal activity against APESV (APESV; application rate 1000 g/ha): good (A good herbicidal activity is given at values of at least 70); herbicidal activity against ECHCG (ECHCG [2]; application rate 1000 g/ha): good (A good herbicidal activity is given at values of at least 70); herbicidal activity against ECHCG (ECHCG [1]; application rate 1000 g/ha): very good (a very good herbicidal activity is given at values of at least 85)
O=C(O)c1nc(C2CC2)ncc1-c1ncccc1I [Example 39] |  | good (A good herbicidal activity is given at values of at least 70) | very good (a very good herbicidal activity is given at values of at least 85) | very good (a very good herbicidal activity is given at values of at least 85) | very good (a very good herbicidal activity is given at values of at least 85) | good (A good herbicidal activity is given at values of at least 70) | 
COC(=O)c1nc(C2CC2)ncc1-c1cnccc1Br [Example 32] | very good (a very good herbicidal activity is given at values of at least 85) |  |  | very good (a very good herbicidal activity is given at values of at least 85) | very good (a very good herbicidal activity is given at values of at least 85) |  | 
